Source: patent publication US20090304810A1, “Composition and method for enhanced sanitation and oxidation of aqueous systems” (priority 2005, published 2009)

Columns and labels:
Catalyst precipitation = type: physicochemical
Description: 20 grams of potassium monopersulfate, 0.1 grams cuprous chloride and 80 grams distilled water was added to a 250 ml beaker and mixed on a magnetic stirrer until dissolved. 1 gram of solution was carefully measured and diluted with 99 grams of distilled water. The diluted sample was treated with sodium bisulfite to remove residual monopersulfate, the pH was then adjusted to 7.3 using a diluted solution of sodium hydroxide. The resulting clear solution was tested using a HACH Company Method 8506 bicinchoninate-powder pillow test procedure and a DR-2000 spectrophotometer. The resulting copper level was measured and corrected compensate for the dilution. The final result being 4.9 ppm as Cu.
A second 1-gram sample from the original solution was neutralized with sodium bisulfite, then treated with 2-grams of 0.1 wt % alum solution to achieve approximately 20 ppm as alum in the diluted solution. The pH was adjust with dilute sodium hydroxide to achieve a pH of approximately 7.3, mixed for about 5 minutes, then allowed to settle in a graduated cylinder. 25 ml of clear water was decanted and tested for copper, resulting a value of 0.78 ppm as Cu.

planktonic algae = assay: Algae destruction in outdoor pool; type: cell-based; conditions: same pool system, opening procedure, 500 lbs
Description: In an outdoor 360,000 gallon pool contaminated with planktonic algae, 200 lbs of the cobalt monopersulfate composition comprising 99.3 wt % Potassium monopersulfate, 0.5 wt % Magnesium Carbonate, and 0.2 wt % Cobalt Acetate as previously disclosed was added to the system by broadcasting. 40 pounds of soda ash was added to neutralize excess acidity, and the ORP controller was set at 780 mV.
The ORP was consistently achieving 780 mV with 2.0-2.5 ppm of free chlorine.
For comparison purposes, the same pool system during the opening procedure was treated with 500 lbs of calcium hypochlorite and allowed to circulate for 7 days before obtaining the water clarity and being allowed to open to swimmers.

[Cl][Cu] [cuprous chloride]
copper level (Catalyst precipitation; no alum, 1:99 diluted, pH 7.3, monopersulfate removed): 4.9 ppm as Cu

alum
copper level in decanted clear water (Catalyst precipitation; approximately 20 ppm alum, pH approximately 7.3, mixed about 5 minutes, settled): 0.78 ppm as Cu

[Ca+2].[O-]Cl.[O-]Cl [calcium hypochlorite]
circulation time before obtaining water clarity (planktonic algae): 7 days
